{
  "source": "ChEMBL document CHEMBL3045847",
  "about": "“Efficacy evaluation of a neem (Azadirachta indica A. Juss) formulation against root-knot nematodes Meloidogyne incognita” (Crop Prot, 2009)",
  "key": {"Meloidogyne incognita [1]": {"system": "Meloidogyne incognita", "assay": "Insecticidal activity against second stage juveniles of Meloidogyne incognita (root-knot nematode) assessed as motility at 0.2 to 3.2 ug a.i/ml in methanol after 24 to 96 hr", "type": "functional, organism-based"}, "Meloidogyne incognita [2]": {"system": "Meloidogyne incognita", "assay": "Insecticidal activity against second stage juveniles of Meloidogyne incognita (root-knot nematode) assessed as increase in immotile at 12.8 to 51.2 ug a.i/ml in methanol after 24 to 96 hr", "type": "functional, organism-based"}, "[3]": {"assay": "Chemical stability of the compound after 4 days by HPLC analysis", "type": "physicochemical", "settings": "96 h"}, "Meloidogyne incognita [4]": {"system": "Meloidogyne incognita", "assay": "Insecticidal activity against second stage juveniles of Meloidogyne incognita (root-knot nematode) assessed as increase in immotile at 51.2 ug a.i/ml in methanol after 48 to 96 hr", "type": "functional"}, "Meloidogyne incognita [5]": {"system": "Meloidogyne incognita", "assay": "Insecticidal activity against second stage juveniles of Meloidogyne incognita (root-knot nematode) assessed as decrease of female nematodes in tomato roots at 0.03 to 30.72 ug/g after 30 days by pot bioassay", "type": "functional, organism-based"}, "Meloidogyne incognita [6]": {"system": "Meloidogyne incognita", "assay": "Insecticidal activity against second stage juveniles of Meloidogyne incognita (root-knot nematode) assessed as motility at 0.2 to 3.2 ug a.i/ml in water after 24 to 96 hr", "type": "functional, organism-based"}, "Meloidogyne incognita [7]": {"system": "Meloidogyne incognita", "assay": "Insecticidal activity against second stage juveniles of Meloidogyne incognita (root-knot nematode) assessed as motility at 0.2 ug a.i/ml in water after 24 to 96 hr", "type": "functional, organism-based"}, "[8]": {"assay": "Chemical stability of the compound after 72 hr by HPLC analysis", "type": "physicochemical"}, "Solanum lycopersicum [9]": {"system": "Solanum lycopersicum", "assay": "Phytotoxicity in Solanum lycopersicum (tomato) assessed as effect on shoot and root fresh weight at 0.03 to 30.72 ug/g after 24 hr", "type": "organism-based", "settings": "in vivo"}, "Solanum lycopersicum [10]": {"system": "Solanum lycopersicum", "assay": "Toxicity in Solanum lycopersicum (tomato) assessed as effect on shoot and root fresh weight at 0.03 to 30.72 ug/g after 24 hr", "type": "organism-based", "settings": "in vivo"}, "Meloidogyne incognita [11]": {"system": "Meloidogyne incognita", "assay": "Insecticidal activity against second stage juveniles of Meloidogyne incognita (root-knot nematode) assessed as increase in immotile at 12.8 to 51.2 ug a.i/ml in water after 24 to 96 hr", "type": "functional"}, "Solanum lycopersicum [12]": {"system": "Solanum lycopersicum", "assay": "Toxicity in Solanum lycopersicum (tomato) assessed as effect on shoot and root fresh weight at 2 ug/g after 24 hr", "type": "organism-based", "settings": "in vivo"}, "Solanum lycopersicum [13]": {"system": "Solanum lycopersicum", "assay": "Phytotoxicity in Solanum lycopersicum (tomato) assessed as effect on shoot and root fresh weight at 2 ug/g after 24 hr", "type": "organism-based", "settings": "in vivo"}, "Meloidogyne incognita [14]": {"system": "Meloidogyne incognita", "assay": "Insecticidal activity against second stage juveniles of Meloidogyne incognita (root-knot nematode) assessed as decrease of female nematodes in tomato roots at 2 ug/g after 30 days by pot bioassay", "type": "functional, organism-based"}},
  "note": "The source made the active and inactive calls. The calls are words filed in the database; no cut-off is given here.",
  "data": [
    {"smiles": "C/C=C(\\C)C(=O)O[C@H]1C[C@@H](OC(C)=O)[C@@]2(C(=O)OC)CO[C@H]3[C@@H](O)[C@@](C)([C@]45O[C@@]4(C)[C@@H]4C[C@H]5O[C@@H]5OC=C[C@@]54O)[C@H]4[C@]1(CO[C@]4(O)C(=O)OC)[C@@H]32", "note": "(stereo in doubt; form 1)", "values": [
      {"measurement": "Activity", "setting": "Meloidogyne incognita [1]", "result": "inactive"},
      {"measurement": "Activity", "setting": "Meloidogyne incognita [2]", "result": "Active"}
    ]},
    {"smiles": "C/C=C(\\C)C(=O)O[C@H]1C[C@@H](OC(C)=O)[C@@]2(C(=O)OC)CO[C@H]3[C@@H](O)[C@@](C)([C@]45O[C@@]4(C)[C@@H]4C[C@H]5O[C@@H]5OC=C[C@@]54O)[C@H]4[C@]1(CO[C@]4(O)C(=O)OC)[C@@H]32", "note": "(stereo in doubt; form 1) [AZADIRACHTIN A]", "values": [
      {"measurement": "Activity", "setting": "[3]", "result": 84, "unit": "%"},
      {"measurement": "Activity", "setting": "Meloidogyne incognita [4]", "result": 11, "unit": "%"}
    ]},
    {"smiles": "C/C=C(\\C)C(=O)O[C@H]1C[C@@H](OC(C)=O)[C@@]2(C(=O)OC)CO[C@H]3[C@@H](O)[C@@](C)([C@]45O[C@@]4(C)[C@@H]4C[C@H]5O[C@@H]5OC=C[C@@]54O)[C@H]4[C@]1(CO[C@]4(O)C(=O)OC)[C@@H]32", "note": "(stereo in doubt; form 2)", "values": [
      {"measurement": "Activity", "setting": "Meloidogyne incognita [5]", "result": "inactive"},
      {"measurement": "Activity", "setting": "Meloidogyne incognita [6]", "result": "inactive"},
      {"measurement": "Activity", "setting": "Meloidogyne incognita [7]", "result": "inactive"}
    ]},
    {"smiles": "C/C=C(\\C)C(=O)O[C@H]1C[C@@H](OC(C)=O)[C@@]2(C(=O)OC)CO[C@H]3[C@@H](O)[C@@](C)([C@]45O[C@@]4(C)[C@@H]4C[C@H]5O[C@@H]5OC=C[C@@]54O)[C@H]4[C@]1(CO[C@]4(O)C(=O)OC)[C@@H]32", "note": "(stereo in doubt; form 2) [AZADIRACHTIN A]", "values": [
      {"measurement": "Activity", "setting": "[3]", "result": 88, "unit": "%"},
      {"measurement": "Stability", "setting": "[8]", "result": "Stable"},
      {"measurement": "Activity", "setting": "Solanum lycopersicum [9]", "result": "Non-toxic"},
      {"measurement": "Activity", "setting": "Solanum lycopersicum [10]", "result": "Non-toxic"},
      {"measurement": "Activity", "setting": "Meloidogyne incognita [11]", "result": 21, "unit": "%"}
    ]},
    {"smiles": "CCOP(=O)(SC(C)CC)N1CCSC1=O", "note": "(stereo not given) [FOSTHIAZATE]", "values": [
      {"measurement": "Activity", "setting": "Solanum lycopersicum [12]", "result": "Non-toxic"},
      {"measurement": "Activity", "setting": "Solanum lycopersicum [13]", "result": "Non-toxic"},
      {"measurement": "Activity", "setting": "Meloidogyne incognita [14]", "result": "Active"}
    ]}
  ]
}
